Experimental data published in a melting point compilation (Tetko et al.; mined from patent text by program, amines drawn as free bases though some values may be those of a salt).

| melting point | SMILES |
| --- | --- |
| 148 to 149 °C | CC1(C)Nc2cc(F)ccc2NC1=O |
| 245 to 246 °C | Cn1cc(C(=O)NCc2ccc(Br)cc2)c(=O)c2cc(CN3CCOCC3)sc21 |
| 102 to 103 °C | O=S(CC#CCOc1ccccc1)c1ccc(Cl)cc1 (configuration not stated) |
| 95 to 97 °C | CC(C)C(C(=O)O)c1ccc(N=[N+]=[N-])cc1 (configuration not stated) |
| 134 to 135 °C | Cc1oc(-c2ccc(F)cc2)cc1COc1cccc(CSC(C)(C)C(=O)O)c1 |
| 52 to 53 °C | CCCCCCCCCCCCCCCCCC1=NCCO1 |
| 181 to 182 °C | CC(C)(NC(=O)c1ccc([N+](=O)[O-])cc1)C(=O)CCl |
| 156 °C | COc1ccc(-n2nc(C(F)(F)F)nc2-c2ccc(S(C)(=O)=O)cc2)cc1 |
| 138 to 140 °C | NC(=O)N(O)Cc1cccc2ccsc12 |
| 121 °C | Cc1ccc(-c2c(Cl)nc3ncnn3c2NC(C)C)c(F)c1 |
| 140 to 141 °C | CCOC(=O)NS(=O)(=O)c1ccc2c(c1)CCN(C(=O)N(C)C)CC2 |
| 223 to 225 °C | O=c1[nH]nc2n1-c1ccc(Cl)cc1C(c1ccccc1F)=CC2 |
| 259 °C | CS(=O)(=O)c1cccc(NC(=O)c2cnn3c(C(F)(F)F)cc(-c4ccc(C(F)(F)F)cc4)nc23)c1 |
| 248 to 251 °C | Cc1cccc(C(=O)NC(C)C)c1NC(=O)c1cnc(C(F)(F)F)nc1C |
| 141 to 143 °C | O=C1c2ccccc2C(=O)N1Cc1cnccn1 |
| 79 to 81 °C | O=C(NCc1noc(-c2ccc(CN3CCCCCC3)s2)n1)c1ccccc1 |
| 111 to 112 °C | CC1C(=O)Oc2cc(N(Cc3ccccc3)Cc3ccccc3)ccc21 (configuration not stated) |
| 116 to 117 °C | COc1c(C)c(CO)c(OC)c2ccccc12 |
| 96 to 98 °C | COc1cc(CCO)cc(OC)c1-c1ccc(C[C@H](NC(=O)c2c(Cl)cccc2Cl)C(=O)OC(C)(C)C)cc1 |
| 151 to 154 °C | CC12CCC3c4ccc(OC(=O)c5ccccc5)cc4CCC3C1CCC2OC(=O)c1cccnc1 (configuration not stated) |
| 170 to 171 °C | Cc1oc(-c2ccccc2)nc1COc1ccc(CSc2nc(CCC(=O)O)n[nH]2)cc1 |
| 204 °C | COc1ccc(-c2c[nH]c(S)n2)cc1 |
| 193 to 194 °C | CNc1c(C2=CC(C)(C)Oc3ccc(C#N)cc32)c(=O)c1=O |

| melting point | SMILES |
| --- | --- |
| 247 °C | O=C(O)c1oc(-c2ccccc2)cc(=O)c1Br |
| 132 to 135 °C | CCCCN1CCC(O)(c2cccn2Cc2ccccc2F)CC1 |
| 188 to 190 °C | CC(C)Oc1ccc(-n2c(C(=O)NCCNC(=O)OC(C)(C)C)cc3cc(Oc4ccc(C(F)(F)F)cn4)ccc32)cc1 |
| 143 to 144 °C | CC(C)(C)c1cc(-c2nn(CCCO)c3ncccc23)cc(C(C)(C)C)c1O |
| 66 °C | Nc1c(F)c(F)cc(F)c1[N+](=O)[O-] |
| 125 to 127 °C | Cc1c(C)c2c(c(C)c1O)SC(C)O2 (configuration not stated) |
| 88 to 90 °C | COc1ccc([C@@H]2Sc3ccccc3N(CCN(C)C)C(=O)[C@@H]2O)cc1 (relative stereo) |
| 105 to 116 °C | CC12CCC(O)CC1=CCC1C2CCC2(C)C(c3ccco3)=CCC12 (configuration not stated) |
| 70 to 71 °C | CC1(C(=O)NCc2cccs2)CC1 |
| 197 to 200 °C | C=CCN1C(=O)COc2cc(F)c(-n3c(=O)cc(CC)[nH]c3=O)cc21 |
| 239 to 242 °C | O=C(NC1CCOCC1)NC12CC3CC(CC(C3)C1)C2 |
| 125 to 127 °C | CSC(=O)N1c2ccccc2C(=O)N(C(C)C)S1(=O)=O |
| 139 to 140 °C | Cc1cc(-c2nc3cccnn3c2-c2ccnc(NC(=O)NCC(C)O)c2)ccc1F (configuration not stated) |
| 140 °C | CCOC(=O)C(=CN(C)C)C(=O)c1cc2cc(F)c(F)cc2nc1Cl |
| > 280 °C | c1cc(-c2nc3cc4[nH]cnc4cc3[nH]2)ccn1 |
| 133 °C | CCCCCc1ccc(OCC23CCC(CCC)(CC2)CC3)c(C#N)c1C#N |
| 239 to 241 °C | CN1c2cc(Cl)ccc2-c2nc3ccccc3c3cc(OS(=O)(=O)C(F)(F)F)cc1c23 |
| 206 to 209 °C | CCCCCCCCCCCCCC(=O)Nc1ccc(C2=NNC(=O)NC2C)cc1 (configuration not stated) |
| 196 to 210 °C | CCn1cc(C(=O)O)c(=O)c2cc(F)c(N3CC(C)(NC(=O)C(F)(F)F)C3)c(F)c21 |
| 109 to 110 °C | OCc1cc(Cl)c(Br)cn1 |
| 153 to 159 °C | COc1c(C)c2c(c(O)c1CC1=C(C)C(CC(=O)O)CC1)C(=O)OC2 (configuration not stated) |
| 246 to 247 °C | CCOCc1nc2c(N)nc(C)c(C)c2n1Cc1cc(-c2ccc(F)cc2)no1 |
| 113 to 115 °C | CSC1=Nc2ccccc2N(C)c2cscc21 |

| melting point | SMILES |
| --- | --- |
| 120 °C | COC(=O)c1ccc(OC)c(NC(=NCl)c2ccccc2)c1 |
| 278 to 280 °C | CC(C)(C)c1cc(C#Cc2ccc(NS(C)(=O)=O)cc2Cl)cc(N2CCC(=O)NC2=O)c1 |
| 161 to 168 °C | C(CCc1cncn1Cc1ccccc1)=C(c1ccccc1)c1ccccc1 |
| 154 to 156 °C | CC(C)c1ccc2c(c1)c(Sc1nc3cc(Cl)ccc3s1)c(CC(C)(C)C(=O)O)n2Cc1ccc(Cl)cc1 |
| 168 to 169 °C | COP(=O)(OC)c1ccc(-c2coc3ccc(-c4nnc(C)o4)cc23)cc1 |
| 48 to 51 °C | Nc1ccccc1-c1cnoc1 |
| 241 to 245 °C | CC(C)(O)c1ccc2c(c1)SC(c1ccccc1)C(c1ccc3c(c1)NC(=O)CO3)=C2 (configuration not stated) |
| 132 °C | O=c1ccccn1CCCn1ccccc1=O |
| 218 °C | CC(C)CNC(=O)[C@H]1C[C@@H](S(=O)(=O)c2ccc([N+](=O)[O-])cc2)[C@@H](c2ccccc2F)N1 (racemic) |
| 158 to 160 °C | CCCCCCC(C)N(Cc1ccc(CC(C)(C)C)cc1)C(Nc1cc(C(C)(C)C)c(O)c(C(C)(C)C)c1)=C1C(=O)COC1=O (configuration not stated) |
| 115 to 116 °C | O=C(Nc1cc(F)ccc1N1CCCCC1)c1ccncc1 |
| 68 to 72 °C | CC(C)CCC(O)C(C(=O)C(Cc1c[nH]cn1)N(C)C(=O)C(Cc1ccccc1)OC(=O)N(C)CCN(C)C(=O)C(C)C)C(N)C1CCCCC1 (configuration not stated) |
| 122 to 123 °C | CN(CC(O)(CO)c1ccccc1)S(=O)(=O)c1ccc(Cl)cc1 (configuration not stated) |
| 152 to 154 °C | CCOC(=O)Cc1csc2nc(C(=O)OC)cn12 |
| 188 °C | CCOc1cc(Cc2cnc(N)nc2N)cc2c1OC(C)(C)C=C2CC(C)C |
| 202 to 203 °C | O=C(O)CCn1c(=O)n(CCN2CCN(c3ccc(F)cc3)CC2)c(=O)c2cscc21 |
| 206 to 207 °C | N#Cc1cn(-c2cccnc2)nc1-c1ccc([N+](=O)[O-])o1 |
| 105 to 106 °C | CC1CCC2(CC1S(=O)(=O)c1ccccc1)OCCO2 (configuration not stated) |
| 133 to 134 °C | CC1CCN(Cc2cccc(OCCCNc3nc(N)nn3C)c2)CC1 |
| 84 to 85 °C | N#CC1(c2ccc(OC(F)F)c(OCC3CC3)c2)CCC(=C2SCCCS2)CC1 (configuration not stated) |
| 178 to 181 °C | Cc1c(C)c(N2C(=O)c3cc(Cl)c(Cl)cc3C2=O)c(C)c2c1OC(C)(C)C2c1ccccc1 (configuration not stated) |
| 117 to 119 °C | c1ccc(N2c3ccccc3C3CN(CC45CC6CC(CC(C6)C4)C5)CCC32)cc1 (single isomer, unassigned; (+)) |
| 78 to 80 °C | O=C(NCCCCCCOC(=O)Oc1ccc([N+](=O)[O-])cc1)OC1CCN(C(=O)OCc2ccccc2)CC1 |

| melting point | SMILES |
| --- | --- |
| 162 to 164 °C | O=C(O)CNC(=O)C(NC(=O)c1ccccc1)SC(=O)c1ccccc1 (configuration not stated) |
| 190 to 193 °C | CN(C)c1nc2cc(Cl)c(Cl)cc2n1C1CC(CO)C(O)C1O (configuration not stated) |
| 85.7 to 87.5 °C | c1ccc(COc2ccc3c(c2)OC[C@@H](c2ccccc2)[C@H]3c2ccc(OCCCCCCN3CCOCC3)cc2)cc1 (racemic) |
| 116 to 119 °C | CC(C)N(CCC1(c2ccccc2Cl)CC(=O)NC1=O)C(C)C (configuration not stated) |
| 55 to 58 °C | O=C(O)CNC(=O)C(S)Cc1ccccc1 (configuration not stated) |
| 186 to 189 °C | COCc1nc2c(N)nc3ccccc3c2n1CC(C)(C)OCCS(C)(=O)=O |
| 144 to 147 °C | Cc1cc(OC/C=C(/c2ccc(Cl)cc2)c2ccc(C#CC(C)(C)C)cc2)ccc1OCC(=O)O |
| 68 to 72 °C | COc1ccc(Cc2ccc(CO)cc2)cc1 |
| 150 °C | COc1ccc(S(=O)(=O)N(CC(N)=O)c2ccc(Cl)cc2Cc2ccccc2Cl)cc1 |
| 168 to 169 °C | COC(=O)c1ccccc1NC(=O)CN1CCN(C(=O)c2ccc(OC)c(OC)c2)CC1 |
| 54 to 57 °C | COc1cc(C(C)C(=O)NCC(COC(=O)C(C)(C)C)Cc2ccc(C(C)(C)C)cc2)ccc1NS(C)(=O)=O (configuration not stated) |
| 107 to 109 °C | COC(=O)C1(CCCCl)Oc2ccccc2CCC1O (configuration not stated) |
| 95 to 98 °C | Cc1cc2c(cc1C(F)(F)F)N(Cc1ccc(C(=O)O)cc1)CCC[C@@H]2N(Cc1cc(C(F)(F)F)cc(C(F)(F)F)c1)c1nnn(C)n1 |
| 120 °C | CCOC(=O)CC1(c2ccccc2)CCN(C(c2ccccc2)(c2ccccc2)c2ccccc2)CC1 |
| > 300 °C | CCn1ncc2c3[nH]c4cc(C)nn4c(=O)c3cnc21 |
| 195 to 196 °C | N#Cc1ccc(Cc2cccc3c2CCN(Cc2cncn2Cc2ccc(C#N)cc2)C3)cc1 |
| 123 to 124 °C | CC(=O)NC(=O)CSC(=O)Cc1ccccc1 |
| 64.7 °C | CCc1nn(C2CCCC2)c2c1CCN(c1ccc(OC)cc1)C2=O |
| 115 to 117 °C | CCN(CCCCC1CCN(C(c2ccccc2)c2ccccc2)CC1)C(=O)C=Cc1cccnc1 |
| 123 to 126 °C | Cc1ccccc1C(=O)N1CCc2nnc(Cl)cc2C1 |
| 173 to 174 °C | O=C(Nc1ccc(O)cc1)C1CCCCC12OCCO2 (configuration not stated) |
| 114 to 115 °C | O=CN1CCC(c2noc3cc(Cl)ccc23)CC1 |
| 52 to 59 °C | CCCn1nc(C(C)C)c(C(=O)OCc2ccccc2C(=O)c2ccccc2)c1Cc1ccc(-c2ccccc2S(=O)(=O)NC(=O)OCC(C)C)c(F)c1 |

| SMILES | melting point |
| --- | --- |
| CC12CC(F)C3C4CCC(=O)C=C4CCC3C1CCC2=O (configuration not stated) | 173 to 174 °C |
| Cc1ccc(OCC2CN=C(N)O2)c(C)c1 (configuration not stated) | 116 °C |
| O=C1Nc2ccccc2N2CCN(CCCc3ccncc3)CC12 (configuration not stated) | 188 to 190 °C |
| O=C(Nc1ccc2[nH]ccc2c1)c1cc2cc(F)ccc2n1Cc1cccc(F)c1 | 158 to 163 °C |
| CC(=NOC(=O)N(C)SC(Cl)(Cl)Cl)SCCC#N | 136 to 138 °C |
